Test results reported in patent US8183215B2, “Method of administering oral flora-improving agent, antibacterial agent and growth promoter” (Megmilk Snow Brand Co., Ltd., priority 2004, dated 2012).
Bridge positions count the residues as written; N and C are the ends. Square brackets hold non-standard residues; d marks the D form. Peptide text beside a SMILES is read from it. * marks the point of attachment. Ileψ(thiazoline)Cys = CC[C@H](C)[C@H](N)C1=N[C@H](C(=O)*)CS1; dOrn = NCCC[C@@H](N)C(=O)O

Columns and labels:
Assay in all cases: Radial Diffusion Assay, antibacterial / growth promoting activity
Assay type in all cases: cell-based
[1] = system: Streptococcus mitis GTC945; details: 5 μl sample in hole, zone measured after 18 hours at 37° C.
Description: (§1) The influences of gangliosides on oral bacteria were examined by Radial Diffusion Assay. That is, 3 mg of Tryptic Soy medium (Difco), 20 μl of Tween 20, and 100 mg of agarose were dissolved in 10 ml of ultrapure water and sterilized. 100 μl of solution of bacteria having an OD620 of 0.2 (5×10^7 cfu/ml) was added to the sterilized medium, and then the resultant mixture was dispensed in Petri dishes and allowed to solidify at room temperature. Each solidified medium was provided with a hole of about 2.5 mm in diameter and 5 μl of each solution of ganglioside GM3 or ganglioside GD3 derived from milk for the evaluation of the antibacterial effect was added to the hole and incubated at 37° C. for 1 hour. Further, a sterilized medium obtained by dissolving 0.6 g of Tryptic Soy medium and 100 mg of agarose in 10 ml of ultrapure water was superposed on the solidified medium and left to solidify at room temperature, and then stationary cultured in an incubator at 37° C. After 18 hours, the diameter of a clear zone formed around the hole formed in the medium was measured. A length obtained by subtracting the diameter (mm) of the hole formed in the medium from the diameter (mm) of a clear zone formed by inhibition of the growth of the bacterium was defined as antibacterial activity. On the other hand, when colonies of the bacterium were formed around the hole in the medium and an opaque zone was observed, it was assumed that growth promotion took place, and a length obtained by subtracting the diameter (mm) of the hole formed in the medium from the diameter (mm) of an opaque zone was defined as growth promotion activity. The bacterial strains subjected to the test include Streptococcus sobrinus 6715 strain, Streptococcus anginosus ATCC33397 strain, and Staphylococcus aureus Cowan I strain as harmful oral bacteria; Streptococcus agalactiae ATCC46448 strain and Actinomyces naeslundii JCM8349 strain as habitant oral bacteria; and Streptococcus mitis GTC495 strain, Streptococcus mitis ATCC6249 strain, and Streptococcus mitis ATCC903 strain as useful oral bacteria.
(§2) Bacitracin, which is an antibacterial component separated from Bacillus subtilis, was used as a positive control and a sample showing an antibacterial activity of 2.0 mm or more was judged to be positive (having an antibacterial activity). As for the growth promoting effect, a sample having a growth promoting activity of 1.0 mm or more was judged to be positive (having a growth promoting activity).

[2] = system: Streptococcus mitis ATCC903 strain; details: 5 μl sample in hole, zone measured after 18 hours at 37° C.
Description: as §1, §2

[3] = system: Streptococcus sobrinus 6715 strain; details: 5 μl sample in hole, zone measured after 18 hours at 37° C.
Description: as §1, §2

[4] = system: Actinomyces naeslundii JCM8349 strain; details: for antibacterial activity / growth promoting activity: Actinomyces naeslundii JCM8349, 5 μl sample in hole, zone measured after 18 hours at 37° C.; for antibacterial and growth promoting activity, result in words: Actinomyces naeslundii JCM8349 strain
Description: as §1, §2

[5] = system: Streptococcus mitis ATCC6249 strain; details: 5 μl sample in hole, zone measured after 18 hours at 37° C.
Description: as §1, §2

[6] = system: Staphylococcus aureus Cowan I strain; details: 5 μl sample in hole, zone measured after 18 hours at 37° C.
Description: as §1, §2

[7] = system: Streptococcus anginosus ATCC33397 strain; details: 5 μl sample in hole, zone measured after 18 hours at 37° C.
Description: as §1, §2

[8] = system: Streptococcus agalactiae ATCC46448 strain; details: for antibacterial activity / growth promoting activity: Streptococcus agalactiae ATCC46448, 5 μl sample in hole, zone measured after 18 hours at 37° C.; for antibacterial and growth promoting activity, result in words: Streptococcus agalactiae ATCC46448 strain
Description: as §1, §2

CC[C@H](C)[C@H](N)C1=N[C@H](C(=O)N[C@@H](CC(C)C)C(=O)N[C@H](CCC(=O)O)C(=O)N[C@H](C(=O)N[C@H]2CCCCNC(=O)[C@H](CC(N)=O)NC(=O)[C@@H](CC(=O)O)NC(=O)[C@H](Cc3cnc[nH]3)NC(=O)[C@@H](Cc3ccccc3)NC(=O)[C@H]([C@@H](C)CC)NC(=O)[C@@H](CCCN)NC2=O)[C@@H](C)CC)CS1 [Bacitracin, reference compound] ({Ileψ(thiazoline)Cys}-L[dE]IK[dOrn]I[dF]H[dD]N; lactam 4-C)
antibacterial activity / growth promoting activity [1]: + (Having an antibacterial activity)
antibacterial activity / growth promoting activity [2]: + (Having an antibacterial activity)
antibacterial activity / growth promoting activity [3]: + (Having an antibacterial activity)
antibacterial activity / growth promoting activity [4]: + (Having an antibacterial activity)
antibacterial activity / growth promoting activity [5]: + (Having an antibacterial activity)
antibacterial activity / growth promoting activity [6]: + (Having an antibacterial activity)
antibacterial activity / growth promoting activity [7]: + (Having an antibacterial activity)
antibacterial activity / growth promoting activity [8]: + (Having an antibacterial activity)

ganglioside GD3
antibacterial activity / growth promoting activity [1]: * (Having a growth promoting activity)
antibacterial activity / growth promoting activity [2]: * (Having a growth promoting activity)
antibacterial activity / growth promoting activity [3]: + (Having an antibacterial activity)
antibacterial activity / growth promoting activity [4]: − (Having no antibacterial activity)
antibacterial and growth promoting activity, result in words [4]: neither an antibacterial activity nor a growth promoting activity
antibacterial activity / growth promoting activity [5]: * (Having a growth promoting activity)
antibacterial activity / growth promoting activity [6]: + (Having an antibacterial activity)
antibacterial activity / growth promoting activity [7]: + (Having an antibacterial activity)
antibacterial activity / growth promoting activity [8]: − (Having no antibacterial activity)
antibacterial and growth promoting activity, result in words [8]: neither an antibacterial activity nor a growth promoting activity

ganglioside GM3
antibacterial activity / growth promoting activity [1]: * (Having a growth promoting activity)
antibacterial activity / growth promoting activity [2]: * (Having a growth promoting activity)
antibacterial activity / growth promoting activity [3]: + (Having an antibacterial activity)
antibacterial activity / growth promoting activity [4]: − (Having no antibacterial activity)
antibacterial and growth promoting activity, result in words [4]: neither an antibacterial activity nor a growth promoting activity
antibacterial activity / growth promoting activity [5]: * (Having a growth promoting activity)
antibacterial activity / growth promoting activity [6]: + (Having an antibacterial activity)
antibacterial activity / growth promoting activity [7]: + (Having an antibacterial activity)
antibacterial activity / growth promoting activity [8]: − (Having no antibacterial activity)
antibacterial and growth promoting activity, result in words [8]: neither an antibacterial activity nor a growth promoting activity
